According to patent publication US9107900B2, “Use of dronedarone for the preparation of a medicament for use in the prevention of cardiovascular hospitalization or of morality” (SANOFI, priority 2008, dated 2015):
Where a name gives a salt, the structure may show the parent alone.

Tested on: patients having a history of atrial fibrillation or atrial flutter
Assay: prospective, multinational, multicentre, double-blind clinical study versus placebo: cardiovascular hospitalizations and mortality
Assay type: in vivo, human
Settings: for HR (95% CI): cardiovascular hospitalization and death / decrease of cardiovascular hospitalization and death: vs placebo
Description: The patients had to have a history of atrial fibrillation or flutter and/or could be in normal sinus rhythm or in atrial fibrillation or flutter at inclusion.
The patient recruitment was carried out by taking into account the following inclusion criteria:
• 1) One of the following risk factors had to be present: • age equal to or greater than 70 years, • hypertension (taking antihypertensives of at least two different classes), • diabetes, • history of cerebral stroke (transient ischemic event or completed cerebral stroke) or of systemic embolism, • left atrial diameter greater than or equal to 50 mm measured by echocardiography, • left ventricular ejection fraction less than 40%, measured by two-dimensional echography; or • age equal to or above 70, or even above 75, possibly combined with at least one of the risk factors below: • hypertension (taking antihypertensives of at least two different classes), • diabetes, • history of cerebral stroke (transient ischemic event or completed cerebral stroke) or of systemic embolism, • left atrial diameter greater than or equal to 50 mm measured by echocardiography, • left ventricular ejection fraction less than 40%, measured by two-dimensional echography; • 2) availability of an electrocardiogram carried out during the past 6 months in order to document the presence or the history of atrial fibrillation or flutter; • 3) availability of an electrocardiogram carried out during the past 6 months in order to document the presence or absence of normal sinus rhythm. […] Criteria Related to a Cardiac Condition: • Patients in permanent atrial fibrillation • Patients in unstable hemodynamic condition such as acute pulmonary edema within 12 hours prior to start of study medication; cardiogenic shock; treatment with IV pressor agents; patients on respirator; congestive heart failure of stage NYHA IV within the last 4 weeks; uncorrected, hemodynamically significant primary obstructive valvular disease; hemodynamically significant obstructive cardomyopathy; a cardiac operation or revascularization procedure within 4 weeks preceding randomization • Planned major non-cardiac or cardiac surgery or procedures including surgery for valvular heart disease, coronary artery bypass graft (CABG), percutaneous coronary intervention (PCI), or on urgent cardiac transplantation list • Acute myocarditis or constrictive pericarditis • Bradycardia<50 bpm and/or PR-interval>0.28 sec on the last 12-lead ECG. • Significant sinus node disease (documented pause of 3 seconds or more) or 2nd or 3rd degree atrioventricular block (AV-block) unless treated with a pacemaker. Criteria Related to Concomitant Medications:
Need of a concomitant medication that is prohibited in this trial, including the requirement for Vaughan Williams Class I and III anti-arrhythmic drugs, that would preclude the use of study drug during the planned study period, i.e. patients have to stop others antiarrhythmics such as Vaughan Williams Class I and III anti-arrhythmic drugs, for example amiodarone, flecamide, propafenone, quinidine, disopyramide, dofetilide, solatol.
• Plasma potassium<3.5 mmol/l (as anti-arrhythmic drugs can be arrhythmogenic in patients with hypokalemia, this must be corrected prior to randomization. • A calculated GFR at baseline<10 ml/min using the Cockroft Gault formula (GFR [ml/min]=(140−AGE [years]*WEIGHT [kilograms]*CONSTANT/CREATININE [μmol/L], where CONSTANT is […]).
Furthermore, the concomitant use of grapefruit juice and all potent inhibitors of CYP3A4 such as ketoconazole were prohibited.
Treatment was initiated using tablets containing either the placebo or an amount of dronedarone hydrochloride corresponding to 400 mg of dronedarone at a rate of twice a day with the morning and evening meal and more specifically at a rate of one tablet in the morning during or shortly after breakfast and one tablet in the evening during or shortly after dinner. […]

[1] = III.30 cardiovascular hospitalization, Dronedarone N = 2301
[2] = III.31 hospitalization not due to supraventricular arrhythmia, Dronedarone N = 2301

With CCCCc1oc2ccc(NS(C)(=O)=O)cc2c1C(=O)c1ccc(OCCCN(CCCC)CCCC)cc1 [dronedarone hydrochloride, 2-n-Butyl-3-[4-(3-di-n-butylaminopropoxy)benzoyl]-5-methylsulphonamidobenzofuran] the “HR (95% CI): cardiovascular hospitalization and death” value (shortened to “HR (95% CI)”) (Age ≧75 years (N 1925)) was 0.75 (0.65, 0.87), the “decrease of cardiovascular hospitalization and death” value (from here on “decrease”) (Age ≧75 years) was 25% and the “HR (95% CI)” value (Diabetes (N 945)) was 0.75 (0.61, 0.91). The “decrease” value (Diabetes) was 25%, the “HR (95% CI)” value (Hypertension (N 3995)) was 0.77 (0.69, 0.85) and the “decrease” value (Hypertension) was 23%. For the same compound, the “Any cardiovascular hospitalization, number” value [1] was 675, the “Any cardiovascular hospitalization, percent” value [1] was “(29.3%)” and the “Atherosclerosis related (if not otherwise specified), number” value [1] was 11. The “Atherosclerosis related (if not otherwise specified), percent” value [1] was “(0.5%)”, the “Atrial fibrillation and other supraventricular rhythm disorders, number” value [1] was 296 and the “Atrial fibrillation and other supraventricular rhythm disorders, percent” value [1] was “(12.9%)”. The “Blood pressure related (hypotension, hypertension; except syncope), number” value [1] was 21, the “Blood pressure related (hypotension, hypertension; except syncope), percent” value [1] was “(0.9%)” and the “Cardiovascular infection, number” value [1] was 4. For the same compound, the “Cardiovascular infection, percent” value [1] was “(0.2%)”, the “Cardiovascular surgery except cardiac transplantation, number” value [1] was 21 and the “Cardiovascular surgery except cardiac transplantation, percent” value [1] was “(0.9%)”. The “Implantation of a pacemaker, ICD or any other cardiac device, number” value [1] was 32, the “Implantation of a pacemaker, ICD or any other cardiac device, percent” value [1] was “(1.4%)” and the “Major bleeding (requiring two or more units of blood or any intracranial hemorrhage), number” value [1] was 21. The “Major bleeding (requiring two or more units of blood or any intracranial hemorrhage), percent” value [1] was “(0.9%)”, the “Myocardial infarction or unstable angina, number” value [1] was 48 and the “Myocardial infarction or unstable angina, percent” value [1] was “(2.1%)”. For the same compound, the “Non-fatal cardiac arrest, number” value [1] was 3, the “Non-fatal cardiac arrest, percent” value [1] was “(0.1%)” and the “Other ventricular arrhythmia, number” value [1] was 1. For the same compound, the “Other ventricular arrhythmia, percent” value [1] was “(<0.1%)”, the “Pulmonary embolism or deep vein thrombosis, number” value [1] was 10 and the “Pulmonary embolism or deep vein thrombosis, percent” value [1] was “(0.4%)”. The “Stable angina pectoris or atypical chest pain, number” value [1] was 45, the “Stable angina pectoris or atypical chest pain, percent” value [1] was “(2.0%)” and the “Syncope, number” value [1] was 21. The “Syncope, percent” value [1] was “(0.9%)”, the “TIA or stroke (except intracranial hemorrhage), number” value [1] was 28 and the “TIA or stroke (except intracranial hemorrhage), percent” value [1] was “(1.2%)”. The “Transcutaneous coronary, cerebrovascular or peripheral procedure, number” value [1] was 27, the “Transcutaneous coronary, cerebrovascular or peripheral procedure, percent” value [1] was “(1.2%)” and the “Ventricular extrasystoles, number” value [1] was 1. For the same compound, the “Ventricular extrasystoles, percent” value [1] was “(<0.1%)”, the “Ventricular fibrillation, number” value [1] was 1 and the “Ventricular fibrillation, percent” value [1] was “(<0.1%)”. The “Ventricular tachycardia (non-sustained and sustained), number” value [1] was 6, the “Ventricular tachycardia (non-sustained and sustained), percent” value [1] was “(0.3%)” and the “Worsening heart failure, including pulmonary edema or dyspnea of cardiac origin, number” value [1] was 78. For the same compound, the “Worsening heart failure, including pulmonary edema or dyspnea of cardiac origin, percent” value [1] was “(3.4%)”, the “Any non-AF cardiovascular hospitalization, number” value [2] was 438 and the “Any non-AF cardiovascular hospitalization, percent” value [2] was “(19.0%)”. For the same compound, the “Atherosclerosis related (if not otherwise specified), number” value [2] was 11, the “Atherosclerosis related (if not otherwise specified), percent” value [2] was “(0.5%)” and the “Blood pressure (hypotension, hypertension, not syncope), number” value [2] was 25. For the same compound, the “Blood pressure (hypotension, hypertension, not syncope), percent” value [2] was “(1.1%)”, the “Cardiovascular infection, number” value [2] was 4 and the “Cardiovascular infection, percent” value [2] was “(0.2%)”. For the same compound, the “Cardiovascular surgery except cardiac transplantation, number” value [2] was 24, the “Cardiovascular surgery except cardiac transplantation, percent” value [2] was “(1.0%)” and the “Implantation of a pacemaker, ICD or any other cardiac device, number” value [2] was 46. For the same compound, the “Implantation of a pacemaker, ICD or any other cardiac device, percent” value [2] was “(2.0%)”, the “Major bleeding (requiring two or more units of blood or any intracranial hemorrhage), number” value [2] was 27 and the “Major bleeding (requiring two or more units of blood or any intracranial hemorrhage), percent” value [2] was “(1.2%)”. The “Myocardial infarction or unstable angina, number” value [2] was 52, the “Myocardial infarction or unstable angina, percent” value [2] was “(2.3%)” and the “Non-fatal cardiac arrest, number” value [2] was 3. For the same compound, the “Non-fatal cardiac arrest, percent” value [2] was “(0.1%)”, the “Other ventricular arrhythmia, number” value [2] was 1 and the “Other ventricular arrhythmia, percent” value [2] was “(<0.1) %”. For the same compound, the “Pulmonary embolism or deep vein thrombosis, number” value [2] was 11, the “Pulmonary embolism or deep vein thrombosis, percent” value [2] was “(0.5%)” and the “Stable angina pectoris or atypical chest pain, number” value [2] was 51. For the same compound, the “Stable angina pectoris or atypical chest pain, percent” value [2] was “(2.2%)”, the “Syncope, number” value [2] was 23 and the “Syncope, percent” value [2] was “(1.0%)”. The “TIA or stroke (except intracranial hemorrhage), number” value [2] was 32, the “TIA or stroke (except intracranial hemorrhage), percent” value [2] was “(1.4%)” and the “Transcutaneous coronary, cerebrovascular or peripheral procedure, number” value [2] was 31. For the same compound, the “Transcutaneous coronary, cerebrovascular or peripheral procedure, percent” value [2] was “(1.3%)”, the “Ventricular extrasystoles, number” value [2] was 1 and the “Ventricular extrasystoles, percent” value [2] was “(<0.1) %”. For the same compound, the “Ventricular fibrillation, number” value [2] was 1, the “Ventricular fibrillation, percent” value [2] was “(<0.1) %” and the “Ventricular tachycardia (non-sustained and sustained), number” value [2] was 6. The “Ventricular tachycardia (non-sustained and sustained), percent” value [2] was “(0.3%)”, the “Worsening heart failure, including pulmonary edema or dyspnea of cardiac origin, number” value [2] was 89 and the “Worsening heart failure, including pulmonary edema or dyspnea of cardiac origin, percent” value [2] was “(3.9%)”. For the same compound, the “HR (95% CI)” value (LVEF <0.40 (N 338)) was 0.72 (0.51, 1.00) and the “decrease” value (LVEF <0.40) was 28%.
